This is an account of results in patent US20220409526A1 (Retina Foundation Of The Southwest, priority 2019, published 2022).

“Also recorded” adds a separate entry of the source.

The subject of data set [1] is ARPE-19 cells. Nature of the data set: in vitro. It counts as cell-based, human. Conditions: then 500 μM HQ for 16 hours. The procedure:
ARPE-19 cells were grown in DMEM:F-12 supplemented with 10% fetal bovine serum (FBS). For all experiments these cells were split and grown in 6-well plates using MEM-Nic supplemented with 1% FBS according to a previously published procedure.^33 Cells used for all the experiments were between passages 25-30. For all experiments, the 96 well plates and 8-well slides were coated with 0.039 mg/mL collagen I at 6 μg/cm^2. The cells were seeded at a cell density of 70,000 cells/well and 150,000 cells/well using MEM-Nic media for 96 well plates and 8 well slides, respectively. Once the cells are confluent, media was replaced with MEM a, GlutaMAX™, supplemented with 1% FBS for 24 hours before carrying out assay protocols. Exposure to NAC alkyl-ester prodrugs were carried out in MEM a, GlutaMAX™, supplemented with 1% FBS and treatment with HQ was carried out in serum free DMEM:F-12.
ARPE-19 Cell viability assays were carried out using XTT/PMS reagent mixtures according to standard procedures known in the art (see Celis, J. E.; Carter, N., Cell Biology: A Laboratory Handbook. Elsevier Science: 2005). Corresponding absorbance readings were obtained using a plate reader at 450 and 660 nm.
A dose dependent study was first carried out for ARPE-19 cells using HQ concentrations varying from 100-1000 μM. Cells were then incubated at 37° C., 5% CO2 for 16 hours. HQ doses of less than 400 μM were non-lethal. Using 500 μM HQ for 16 hours gave a cell viability of ˜60%.
To evaluate the ability of the NAC alkyl-ester analogues to provide cellular protection against oxidative stress, cells were treated with 0.05 mM of NAC, NACME, NACEE, NACPE and NACBE for 2, 24 and 48 hours. Treated cells were then exposed to 500 μM HQ for 16 hours. HQ solutions were removed and replaced with DMEM:F-12 supplemented with 1% FBS, and followed by the addition of XTT (2,3-bis-(2-methoxy-4-nitro-5-sulfophenyl)-2H-tetrazolium-5-carboxanilide) and PMS (phenazine methyl sulfate).
To compare the effectiveness of NACBE and NAC in protecting against oxidative damage, another dose dependent study was carried out by varying the pretreatment concentration from 0.001 mM to 1.0 mM. […] Whereas for NAC, to reach the same cell viability, 0.5 mM concentration was needed (10× times that of NACBE).

Data set [2] deals with ARPE-19 cells. Nature of the data set: ZO-1 staining of cellular junctions. It counts as cell-based, human. The procedure:
ARPE-19 cells were grown on an 8-well slide until confluent. The cells were exposed to 1 mM NAC and NACBE for 24 hours, followed by treatment with 500 μM of HQ for 2 hours. The cells were washed with 3 cycles of PBS, and then fixed with 4% Paraformaldehyde at 4° C. for 30 mins. After fixation the cells were blocked in PBST (0.2% Triton X-100)+1% BSA for 60 mins. Primary antibody (rabbit anti-Zo-1, Invitrogen) was diluted 1/100 in PBST+1% BSA and added overnight at […]. Cells were washed ×3 with PBS and secondary antibody (Donkey anti-Rabbit AF-555, Abcam) was added for 4 hours at RT. Cells were washed ×3 with PBS and mounted with Prolong Diamond Mountant with DAPI (Invitrogen).

Data set [3] relates to ARPE-19 cells. Nature of the data set: HPLC analysis of cellular uptake and conversion to NAC. It counts as in vitro ADME, human. Conditions: 1 mM for 1 hour in HBSS. The procedure: ARPE-19 cells were seeded onto a 60 cm^2 dish and was allowed to grow to confluency. The cells were treated with 1 mM NAC and NACBE for 1 hour in HBSS. The drug solution was aspirated and washed twice with HBSS. The cells were scraped with the aid of methanol (˜1 mL) and collected into 2 mL centrifuge tubes. The cell suspension in methanol was sonicated (for cell lysis) in a water bath for 30 minutes and was centrifuged at 14,000 RPM for 15 minutes. The supernatant was transferred to a HPLC vial and methanol was evaporated under a stream of nitrogen.
The sample was resuspended in 50 μL of methanol before injecting into the HPLC system. Samples and standard (20 μL) were injected with an autosampler. Separation was conducted by 0.8 mL/min gradient elution with a water/0.10% formic acid and acetonitrile mobile phase on a 250×4.6-mm ([…]) C18 column (Restek, Pinnacle II) maintained at 25° C. The samples were monitored at 205 nm with a UV detector and analyzed with Agilent Chemstation software.

Data set [4] concerns ARPE-19 cells. The experiment in a line: CellTiter-Glo assay (ATP). It counts as cell-based, human. Conditions: 1 mM pretreatment, then 500 μM HQ for 3, 6 and 8 hours. On the procedure:
ARPE-19 cells were grown in white 96 well plates. The cells were first exposed to 500 μM of HQ for 3, 6 and 8 hours and the amount of ATP produced was measured using the CellTiter-Glo assay kit to obtain a time dependent response (FIG. 15). […] Due to the mitochondrial damage caused by HQ, the production of ATP was decreased.
(In general: Cellular ATP, detected with luciferase, serves as a proxy for viable cell number.)

In data set [5] the test system is ARPE-19 cells. Nature of the data set: JC-1 staining (confocal). The following applies: 1 mM pretreatment for 24 hours, then 50 μM HQ for 4 hours.
Excerpt: The cells were imaged on the confocal (Zeiss LSM 800) by excitation with the 488 nm laser and emission imaged at 530 nm (green channel) and 590 nm (red channel).

For `CCCCOC(=O)[C@H](CS)NC(C)=O` [NACBE, N-acetylcysteine butyl ester], the “change in cell viability upon exposure to HQ” value in the data set on ARPE-19 cells [1] (0.05 mM pretreatment for 24 and 48 hours, compared to NAC and the control) is on record as “comparatively a higher cell viability”; in the data set on ARPE-19 cells [1] (0.05 mM pretreatment for 2 hours) it was “marginal effect”. In addition, the “pretreatment concentration at which 100% cell viability was obtained” value in the data set with ARPE-19 cells [1] (pretreatment 0.001-1.0 mM for 24 hours) was determined as 0.05 mM. The “ZO-1 staining of cell-cell junctions” value in the data set on ARPE-19 cells [2] (1 mM for 24 hours, without HQ) is “proper cell-cell junctions”. Also, the “ZO-1 staining of cellular junctions after exposure to HQ” value with ARPE-19 cells [2] (1 mM pretreatment for 24 hours, then 500 μM HQ for 2 hours) is reported as “intact”. Further, the “compound and metabolite detected within the cells by HPLC” value in the data set on ARPE-19 cells [3] was “both NACBE (prodrug) and NAC (metabolite) within the cells; also recorded: taken up by the cells more effectively than NAC”. Moreover, the “ATP production after HQ insult” value with ARPE-19 cells [4] is given as “ATP production remained unaltered”. The “mitochondrial membrane potential after HQ (JC-1 staining)” value in the data set on ARPE-19 cells [5] is on record as “preserved the mitochondrial membrane potential”.
